Test results from US6737383B1, “Herbicidal oxadiazolidines” (priority 1999, dated 2004).

Tests used:
Details in all cases: 0 to 10 scale where 0 is no effect and 10 is complete control
crabgrass = assay: Test A crabgrass; assay type: in vivo, Digitaria spp.
Procedure, shortened: (§1)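 Injury scored visually after about eleven greenhouse days against untreated plants, 0 = no effect, 10 = complete control. Compounds, formulated in surfactant-containing non-phytotoxic solvent, were applied as preemergence soil drench to sandy loam plantings and as postemergence runoff spray at the 1–2 leaf stage.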

morningglory = assay: Test A morningglory; assay type: in vivo, Ipomoea spp.
Procedure, shortened: as §1

velvetleaf = assay: Test A velvetleaf; assay type: in vivo, Abutilon theophrasti
Procedure, shortened: as §1

| Compound | Plant response rating, Crabgrass (crabgrass; Postemergence, Rate 1000 g/ha) | Plant response rating, Crabgrass (crabgrass; Pre-emergence, Rate 2000 g/ha) | Plant response rating, Morningglory (morningglory; Postemergence, Rate 1000 g/ha) | Plant response rating, Morningglory (morningglory; Pre-emergence, Rate 2000 g/ha) | Plant response rating, Velvetleaf (velvetleaf; Postemergence, Rate 1000 g/ha) | Plant response rating, Velvetleaf (velvetleaf; Pre-emergence, Rate 2000 g/ha) |
| --- | --- | --- | --- | --- | --- | --- |
| CC(C)N(C(=O)n1oc(=O)n(C)c1=O)c1ccc(Cl)cc1 [Compound 137] | 8 | 10 | 10 | 3 | 2 | 5 |
| CC(C)N(C(=O)n1oc(=O)n(N(C)c2ccccc2)c1=O)c1ccc(F)cc1 [Compound 177] | 3 | 9 | 0 | 0 | 2 | 1 |
| CCN(C(=O)n1oc(=O)n(N(C)c2ccccc2)c1=O)C1CCCCC1 [Compound 183] | 1 | 5 | 0 | 0 | 0 | 0 |
| CC(C)N(C(=O)n1oc(=O)n(C2CCCC(C(F)(F)F)C2)c1=O)c1ccc(F)cc1 (stereo not drawn) [Compound 184] | 1 | 9 | 10 | 0 | 2 | 0 |
